Key:
Settings in all cases: exposure time: 72 h
E21 [1] = patient-derived glioblastoma stem cells of mesenchymal subtype; test: surviving fraction (nuclei count normalised to DMSO); higher = more cells surviving (less toxic)
E28 [2] = patient-derived glioblastoma stem cells of classical subtype; test: as above
E34 [3] = patient-derived glioblastoma stem cells of proneural subtype; test: as above
FT3469 [4] = normal neural stem cell line; test: as above
E13 [5] = patient-derived glioblastoma stem cells of classical subtype; test: as above
E57 [6] = patient-derived glioblastoma stem cells of mesenchymal subtype; test: as above
E31 [7] = patient-derived glioblastoma stem cells of proneural subtype; test: as above
E21 [8] = test: phenotypic distance (Euclidean, principal components) from DMSO controls (arbitrary units); higher = stronger morphological change
E28 [9] = test: as above
E34 [10] = test: as above
FT3469 [11] = test: as above
E13 [12] = test: as above
E57 [13] = test: as above
E31 [14] = test: as above
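For phenotypic distance (Euclidean, principal components) from DMSO controls in this document: cell Painting imaging in 384-well plates, CellProfiler features reduced to at least 20 principal components, Euclidean distance versus same-plate DMSO vehicle wells (0.1% v/v), median over six images per well.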
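For surviving fraction (nuclei count normalised to DMSO) in this document: nuclei counted by high-content imaging of Hoechst-stained cells in laminin-coated 384-well plates, relative to 0.1% DMSO vehicle wells, with staurosporine as cell-death control.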

COc1cc(N)c(Cl)cc1C(=O)NC1CCN(CCCOc2ccc(F)cc2)CC1OC (stereo unspecified) [Cisapride]
Settings | phenotypic distance | surviving fraction
E13 [5], 4.1 nM | – | 1.06
E13 [5], 12.3 nM | – | 0.908
E13 [5], 37 nM | – | 0.927
E13 [5], 111.1 nM | – | 1
E13 [5], 333.3 nM | – | 0.996
E13 [5], 1000 nM | – | 0.958
E13 [5], 3000 nM | – | 0.907
E13 [12], 4.1 nM | 0.873 | –
E13 [12], 12.3 nM | 0.288 | –
E13 [12], 37 nM | 0.382 | –
E13 [12], 111.1 nM | 0.383 | –
E13 [12], 333.3 nM | 0.399 | –
E13 [12], 1000 nM | 0.304 | –
E13 [12], 3000 nM | 0.549 | –
E21 [1], 4.1 nM | – | 1.04
E21 [1], 12.3 nM | – | 1.03
E21 [1], 37 nM | – | 0.956
E21 [1], 111.1 nM | – | 1.08
E21 [1], 333.3 nM | – | 0.888
E21 [1], 1000 nM | – | 0.863
E21 [1], 3000 nM | – | 0.846
E21 [8], 4.1 nM | 0.524 | –
E21 [8], 12.3 nM | 0.638 | –
E21 [8], 37 nM | 0.752 | –
E21 [8], 111.1 nM | 0.754 | –
E21 [8], 333.3 nM | 0.818 | –
E21 [8], 1000 nM | 0.872 | –
E21 [8], 3000 nM | 1.14 | –
E28 [2], 4.1 nM | – | 1.05
E28 [2], 12.3 nM | – | 1.04
E28 [2], 37 nM | – | 1.14
E28 [2], 111.1 nM | – | 0.921
E28 [2], 333.3 nM | – | 1.09
E28 [2], 1000 nM | – | 0.963
E28 [2], 3000 nM | – | 0.844
E28 [9], 4.1 nM | 0.867 | –
E28 [9], 12.3 nM | 0.592 | –
E28 [9], 37 nM | 0.923 | –
E28 [9], 111.1 nM | 0.547 | –
E28 [9], 333.3 nM | 1.1 | –
E28 [9], 1000 nM | 0.901 | –
E28 [9], 3000 nM | 1.01 | –
E31 [7], 4.1 nM | – | 1.04
E31 [7], 12.3 nM | – | 1.01
E31 [7], 37 nM | – | 0.895
E31 [7], 111.1 nM | – | 1
E31 [7], 333.3 nM | – | 1.01
E31 [7], 1000 nM | – | 0.972
E31 [7], 3000 nM | – | 0.67
E31 [14], 4.1 nM | 0.443 | –
E31 [14], 12.3 nM | 0.553 | –
E31 [14], 37 nM | 0.533 | –
E31 [14], 111.1 nM | 0.657 | –
E31 [14], 333.3 nM | 0.557 | –
E31 [14], 1000 nM | 0.668 | –
E31 [14], 3000 nM | 0.804 | –
E34 [3], 4.1 nM | – | 1.06
E34 [3], 12.3 nM | – | 1.13
E34 [3], 37 nM | – | 0.945
E34 [3], 111.1 nM | – | 0.906
E34 [3], 333.3 nM | – | 1.02
E34 [3], 1000 nM | – | 0.971
E34 [3], 3000 nM | – | 1.06
E34 [10], 4.1 nM | 0.74 | –
E34 [10], 12.3 nM | 0.611 | –
E34 [10], 37 nM | 0.666 | –
E34 [10], 111.1 nM | 0.904 | –
E34 [10], 333.3 nM | 0.986 | –
E34 [10], 1000 nM | 0.415 | –
E34 [10], 3000 nM | 0.914 | –
E57 [6], 4.1 nM | – | 0.957
E57 [6], 12.3 nM | – | 0.903
E57 [6], 37 nM | – | 1.05
E57 [6], 111.1 nM | – | 1.07
E57 [6], 333.3 nM | – | 0.967
E57 [6], 1000 nM | – | 1.04
E57 [6], 3000 nM | – | 0.918
E57 [13], 4.1 nM | 0.385 | –
E57 [13], 12.3 nM | 0.606 | –
E57 [13], 37 nM | 0.667 | –
E57 [13], 111.1 nM | 0.47 | –
E57 [13], 333.3 nM | 0.668 | –
E57 [13], 1000 nM | 0.946 | –
E57 [13], 3000 nM | 0.645 | –
FT3469 [4], 4.1 nM | – | 0.931
FT3469 [4], 12.3 nM | – | 1.1
FT3469 [4], 37 nM | – | 0.992
FT3469 [4], 111.1 nM | – | 1.06
FT3469 [4], 333.3 nM | – | 0.891
FT3469 [4], 1000 nM | – | 1.2
FT3469 [4], 3000 nM | – | 0.907
FT3469 [11], 4.1 nM | 1.16 | –
FT3469 [11], 12.3 nM | 0.775 | –
FT3469 [11], 37 nM | 1.12 | –
FT3469 [11], 111.1 nM | 2.83 | –
FT3469 [11], 333.3 nM | 0.576 | –
FT3469 [11], 1000 nM | 1.05 | –
FT3469 [11], 3000 nM | 0.797 | –

Cn1ncnc1[C@H]1c2n[nH]c(=O)c3cc(F)cc(c23)N[C@@H]1c1ccc(F)cc1 [Talazoparib]
Settings | phenotypic distance | surviving fraction
E13 [5], 4.1 nM | – | 0.705
E13 [5], 12.3 nM | – | 0.673
E13 [5], 37 nM | – | 0.629
E13 [5], 111.1 nM | – | 0.593
E13 [5], 333.3 nM | – | 0.548
E13 [5], 1000 nM | – | 0.461
E13 [5], 3000 nM | – | 0.51
E13 [12], 4.1 nM | 1.44 | –
E13 [12], 12.3 nM | 1.97 | –
E13 [12], 37 nM | 2.08 | –
E13 [12], 111.1 nM | 2.45 | –
E13 [12], 333.3 nM | 3.55 | –
E13 [12], 1000 nM | 4.7 | –
E13 [12], 3000 nM | 4.3 | –
E21 [1], 4.1 nM | – | 0.755
E21 [1], 12.3 nM | – | 0.777
E21 [1], 37 nM | – | 0.709
E21 [1], 111.1 nM | – | 0.629
E21 [1], 333.3 nM | – | 0.565
E21 [1], 1000 nM | – | 0.403
E21 [1], 3000 nM | – | 0.292
E21 [8], 4.1 nM | 4.97 | –
E21 [8], 12.3 nM | 1.69 | –
E21 [8], 37 nM | 2.19 | –
E21 [8], 111.1 nM | 2.75 | –
E21 [8], 333.3 nM | 3.08 | –
E21 [8], 1000 nM | 4.5 | –
E21 [8], 3000 nM | 5.21 | –
E28 [2], 4.1 nM | – | 0.503
E28 [2], 12.3 nM | – | 0.47
E28 [2], 37 nM | – | 0.44
E28 [2], 111.1 nM | – | 0.418
E28 [2], 333.3 nM | – | 0.388
E28 [2], 1000 nM | – | 0.395
E28 [2], 3000 nM | – | 0.3
E28 [9], 4.1 nM | 3.02 | –
E28 [9], 12.3 nM | 2.65 | –
E28 [9], 37 nM | 3.31 | –
E28 [9], 111.1 nM | 3.57 | –
E28 [9], 333.3 nM | 3.51 | –
E28 [9], 1000 nM | 3.37 | –
E28 [9], 3000 nM | 4.36 | –
E31 [7], 4.1 nM | – | 0.59
E31 [7], 12.3 nM | – | 0.663
E31 [7], 37 nM | – | 0.623
E31 [7], 111.1 nM | – | 0.534
E31 [7], 333.3 nM | – | 0.342
E31 [7], 1000 nM | – | 0.265
E31 [7], 3000 nM | – | 0.207
E31 [14], 4.1 nM | 1.5 | –
E31 [14], 12.3 nM | 1.58 | –
E31 [14], 37 nM | 1.6 | –
E31 [14], 111.1 nM | 2.21 | –
E31 [14], 333.3 nM | 2.86 | –
E31 [14], 1000 nM | 2.1 | –
E31 [14], 3000 nM | 2.79 | –
E34 [3], 4.1 nM | – | 0.623
E34 [3], 12.3 nM | – | 0.671
E34 [3], 37 nM | – | 0.556
E34 [3], 111.1 nM | – | 0.594
E34 [3], 333.3 nM | – | 0.561
E34 [3], 1000 nM | – | 0.503
E34 [3], 3000 nM | – | 0.48
E34 [10], 4.1 nM | 3.39 | –
E34 [10], 12.3 nM | 3.64 | –
E34 [10], 37 nM | 3.15 | –
E34 [10], 111.1 nM | 3.62 | –
E34 [10], 333.3 nM | 3.3 | –
E34 [10], 1000 nM | 2.98 | –
E34 [10], 3000 nM | 3.55 | –
E57 [6], 4.1 nM | – | 0.807
E57 [6], 12.3 nM | – | 0.735
E57 [6], 37 nM | – | 0.797
E57 [6], 111.1 nM | – | 0.676
E57 [6], 333.3 nM | – | 0.605
E57 [6], 1000 nM | – | 0.313
E57 [6], 3000 nM | – | 0.25
E57 [13], 4.1 nM | 1.57 | –
E57 [13], 12.3 nM | 1.96 | –
E57 [13], 37 nM | 1.65 | –
E57 [13], 111.1 nM | 2.9 | –
E57 [13], 333.3 nM | 3.02 | –
E57 [13], 1000 nM | 6.02 | –
E57 [13], 3000 nM | 6.4 | –
FT3469 [4], 4.1 nM | – | 0.637
FT3469 [4], 12.3 nM | – | 0.778
FT3469 [4], 37 nM | – | 0.657
FT3469 [4], 111.1 nM | – | 0.727
FT3469 [4], 333.3 nM | – | 0.648
FT3469 [4], 1000 nM | – | 0.636
FT3469 [4], 3000 nM | – | 0.569
FT3469 [11], 4.1 nM | 2.18 | –
FT3469 [11], 12.3 nM | 1.53 | –
FT3469 [11], 37 nM | 1.5 | –
FT3469 [11], 111.1 nM | 1.69 | –
FT3469 [11], 333.3 nM | 1.74 | –
FT3469 [11], 1000 nM | 1.99 | –
FT3469 [11], 3000 nM | 2.44 | –
